In one assay the test system is morphant KS embryos. The settings on record: Bogershausen et al. 2015; cited from earlier work.
Assay [1] has as its system zebrafish kmt2d morphants. The assay is described as follows: Rescue of convergent-extension (CE) phenotype in kmt2d morphants. The assay is classed as in vivo.

`O=C(NOCC1CC1)c1cc(Br)c(F)c(F)c1Nc1ccc(I)cc1Cl` [PD184161]: the “rescue of CE-driven phenotypes” value with morphant KS embryos is listed as “phenocopy this rescue”. In the case of `CC(C)(C)c1nc(-c2cccc(NS(=O)(=O)c3c(F)cccc3F)c2F)c(-c2ccnc(N)n2)s1` [Dabrafenib, reference compound], the “amelioration of CE defects over serial dilutions” value in assay [1] (1 nM to 1 μM, 8-10 somite stage) is “did not result in significant amelioration”. For the same molecule, the “CE defects at 50 nM and 100 nM doses” value in assay [1] (dose response, 50 and 100 nM) was “marginal improvements”.

The values are drawn from patent publication US20210196714A1, “COMPOSITIONS AND METHODS FOR TREATING DISORDERS CHARACTERIZED WITH ABERRANT RAS/MAPK SIGNALING” (Duke University, priority 2018, published 2021).
